According to PMC6656724 (Communications Biology, 2019):
Read-outs that look alike come from different tables or passages of the source.

Key:
[1] = test system: MDR1 (P-glycoprotein); experiment: in vitro; assay type: in vitro ADME, canine; settings: dog
Protocol: (§1) internal standard at each timepoint. […]
(§2) including an analytical internal standard.
(§3) Apparent permeability (Papp) values were determined from the relationship: […]
(§4) Where V is the volume of each Transwell compartment (apical 125 µL, basolateral 600 µL), and concentrations are the relative MS responses for compound (normalized to internal standard) in the donor chamber before incubation and acceptor chamber at the end of the incubation. Area = area of cells exposed for drug transfer (0.33 cm 2).
(§5) Efflux ratios (Papp B>A / Papp A>B) were calculated for each compound from the […]
(§6) MDR1-MDCK cell line has been engineered to overexpress the efflux transporter, MDR1 (P-glycoprotein), and a finding of good permeability B>A, but poor […]
(§7) order to confirm the involvement of MDR1 in any efflux seen, an “ef fective efflux ratio” (EER) was calculated by comparing compound efflux ratios (ER) in the two cell types, i.e. EER = ER (MDR1-MDCK)/ ER (wild-type MDCK). This ratio illustrates the effect of the over-expressed MDR1 normalised for the background movement of compound through the wild-type cells.
(§8) Lucifer Yellow (LY) was added to the apical buffer in all wells to assess viability of the cell layer. As LY cannot freely permeate lipophilic barriers, a high degree of LY […]
(§9) validity of other wells on the plate.
(§10) Compound recovery from the wells was determined from MS responses (normalized to internal standard) in donor and acceptor chambers at the end of incubation compared to response in the donor chamber pre-incubation.

[2] = in vitro; assay type: in vitro ADME, canine; settings: dog, MDCK
Protocol: as §1, §2, §3, §4, §5, §6, §7, §8, §9, §10

[3] = Stability in mouse hepatic microsomes; settings: for half-life at 1 µM: mouse, pooled liver microsomes
Protocol: 3.6.3 Compound stability in mouse hepatic microsomes and rat hepatocytes
A microsomal stability assay was performed as described in the BioFocus Standard
Operating Procedure ADME-SOP-83, using pooled hepatic mouse
Test and control compounds (midazolam,
dextromethorphan), were prepared in DMSO and incubated at an initial concentration
in the presence of the cofactor, NADPH (1 mM). Aliquots were removed at 0, 5, 10,
20 and 40 minutes for termination of reactions and compound extraction with ACN
containing an analytical internal standard. Samples were centrifuged and the
supernatant fractions analysed for parent compound by mass spectrometry (LC-
MS/MS). The amount of compound remaining (expressed as %) was determined from
the MS response in each sample relative to that in the T = 0 samples (normalised for
internal standard). Ln plots of the % remaining were used to determine the half-life
the slope of the Ln % remaining vs time curve. The in vitro intrinsic clearance Clint

[4] = Mouse brain penetration study; assay type: in vivo, female C57BL6 mice
Protocol: Inhibitor 1 (and prodrugs 1a, 1b, 1c and 1d) was dosed as a bolus solution intravenously at 1 mg free base/kg (dose volume: 5 mL/kg; dose vehicle: 5% DMSO; 95% saline (inhibitor 1) or 5% DMSO; 40% PEG400; 55% MilliQ H2O (prodrugs 1a, 1b, 1c and 1d)) to female C57BL6 mice (n = 6). At 5 min and 60 min following intravenous bolus injection of test compound, mice (n = 3/timepoint) were placed under terminal anaesthesia with isofluorane. A blood sample was taken by cardiac puncture, the […] decapitated and the brain removed. Brain weight was noted and each brain homogenised with two volumes of methanol (2 mL/g brain). Each blood sample was diluted with distilled water (1:10). Diluted blood and the brain homogenates were then stored frozen until preparation and analysis by UPLC-MS/MS. For each mouse at each timepoint for 1, the concentration in brain (ng/g) was divided by the concentration in blood (ng/mL) to give a brain:blood ratio. The mean value obtained was quoted. For prodrugs 1a to 1d, only the concentration of 1 in blood (ng/mL) and brain (ng/g) was reported.
A rapid and sensitive ultra-performance chromatography/tandem mass spectrometry (UPLC-MS/MS) method was developed and validated for the determination of inhibitor 1 and prodrug 1b (rat only). Chromatographic analysis was conducted on a Waters Acquity™ UPLC system. Chromatographic separation was performed with an Acquity™ UPLC BEH C18 column (50 × 2.1 mm, 1.7 µm, 130Å; Waters Corp.) maintained at 40 °C in a column oven. The mobile phase consisted of water with 0.01% formic acid and ACN with 0.01 % formic acid and it was delivered at a flow rate of 0.6 mL/min under gradient eluent conditions within an analysis cycle time of 3 min. The mass detection was conducted on a Waters Xevo™ TQs mass spectrometer equipped with a ScanWave™ technology. Quantitation of the analyte was performed in electrospray positive ionisation mode (ESI^+) using multiple reaction monitoring. The optimised fragmentation transition was m/z = 270.17 → 196.19 (mouse) or m/z = 270.17 → 223.76 (rat) for inhibitor 1 and m/z = 297.83 → 195.74 for prodrug 1b (rat).
Sample extraction for blood and brain homogenate was by protein precipitation (1:3 or 1:6) using ACN containing suitable internal standard. Extracts were vortexed followed by centrifugation (2800 rpm for 10 min). An aliquot of each supernatant was then diluted two-fold in distilled water ready for analysis by UPLC-MS/MS.
The weighted 1/x^2 calibration line was linear in the dynamic range of 1–5000 ng/mL for inhibitor 1 and 1–1000 ng/mL for prodrug 1b with a correlation coefficient (r^2) > 0.99 (inhibitor 1) or 0.98 (prodrug 1b). The quality control samples (QC) were prepared by using the same spiking scheme as the calibration samples and up to four different target concentration brain levels: 2 ng/mL (LQC), 40 ng/mL (MQC), 100 ng/mL (HQC) and 2000 ng/mL. Data collection, peak integration and calculations were performed using MassLynx software, version 2.1.

Cc1cc2c(c(C)c1Cl)N(CC(=O)O)C(=O)CO2 [compound 1, (6-chloro-5,7-dimethyl-3-oxo-2,3-dihydro-4H-1,4-benzoxazin-4-yl) acetic acid]
Papp A→B at 1 h, 10 µM ([1]; MDCK-MDR1, pH 7.4, MDR1 MDCK, read-out: Papp A>B Mean): 16 ×10⁻⁶ cm/s
Papp B→A at 1 h, 10 µM ([1]; MDCK-MDR1, pH 7.4, MDR1 MDCK, read-out: Papp B>A Mean): 2.1 ×10⁻⁶ cm/s
recovery at 1 h, 10 µM ([1]; MDCK-MDR1, pH 7.4, MDR1 MDCK, read-out: Recovery A>B Mean): 99%
recovery at 1 h, 10 µM ([1]; MDCK-MDR1, pH 7.4, MDR1 MDCK, read-out: Recovery A>B n=1): 107%
recovery at 1 h, 10 µM ([1]; MDCK-MDR1, pH 7.4, MDR1 MDCK, read-out: Recovery A>B n=2): 91%
recovery at 1 h, 10 µM ([1]; MDCK-MDR1, pH 7.4, MDR1 MDCK, read-out: Recovery B>A Mean): 84%
recovery at 1 h, 10 µM ([1]; MDCK-MDR1, pH 7.4, MDR1 MDCK, read-out: Recovery B>A n=1): 62%
recovery at 1 h, 10 µM ([1]; MDCK-MDR1, pH 7.4, MDR1 MDCK, read-out: Recovery B>A n=2): 106%
Papp A→B at 1 h, 10 µM ([1]; MDCK-MDR1, pH 7.4, Papp A>B n=1, MDR1 MDCK): 18 ×10⁻⁶ cm/s
Papp A→B at 1 h, 10 µM ([1]; MDCK-MDR1, pH 7.4, Papp A>B n=2, MDR1 MDCK): 14 ×10⁻⁶ cm/s
Papp B→A at 1 h, 10 µM ([1]; MDCK-MDR1, pH 7.4, Papp B>A n=1, MDR1 MDCK): 1.8 ×10⁻⁶ cm/s
Papp B→A at 1 h, 10 µM ([1]; MDCK-MDR1, pH 7.4, Papp B>A n=2, MDR1 MDCK): 2.4 ×10⁻⁶ cm/s
Papp A→B at 1 h, 10 µM ([2]; pH 7.4, Papp A>B n=1, wild type MDCK): 16 ×10⁻⁶ cm/s
Papp A→B at 1 h, 10 µM ([2]; pH 7.4, Papp A>B n=2, wild type MDCK): 11 ×10⁻⁶ cm/s
Papp B→A at 1 h, 10 µM ([2]; pH 7.4, Papp B>A n=1, wild type MDCK): 2.6 ×10⁻⁶ cm/s
Papp B→A at 1 h, 10 µM ([2]; pH 7.4, Papp B>A n=2, wild type MDCK): 2.3 ×10⁻⁶ cm/s
Papp A→B at 1 h, 10 µM ([2]; pH 7.4, wild type MDCK, read-out: Papp A>B Mean): 13.5 ×10⁻⁶ cm/s
Papp B→A at 1 h, 10 µM ([2]; pH 7.4, wild type MDCK, read-out: Papp B>A Mean): 2.45 ×10⁻⁶ cm/s
recovery at 1 h, 10 µM ([2]; pH 7.4, wild type MDCK, read-out: Recovery A>B Mean): 93.5%
recovery at 1 h, 10 µM ([2]; pH 7.4, wild type MDCK, read-out: Recovery A>B n=1): 100%
recovery at 1 h, 10 µM ([2]; pH 7.4, wild type MDCK, read-out: Recovery A>B n=2): 87%
recovery at 1 h, 10 µM ([2]; pH 7.4, wild type MDCK, read-out: Recovery B>A Mean): 108%
recovery at 1 h, 10 µM ([2]; pH 7.4, wild type MDCK, read-out: Recovery B>A n=1): 108%
recovery at 1 h, 10 µM ([2]; pH 7.4, wild type MDCK, read-out: Recovery B>A n=2): 109%
Mean intrinsic clearance ([3]; mouse hepatic microsomes): < 28 µL/min/mg microsome protein
half-life at 1 µM ([3]; Half-life Mean, mouse hepatic microsomes): > 1.67 h
half-life at 1 µM ([3]; Half-life n=1, mouse hepatic microsomes): > 1.67 h
half-life at 1 µM ([3]; Half-life n=2, mouse hepatic microsomes): > 1.67 h
concentration at 5 min ([4]; C57BL6, mouse, whole blood, iv, female C57BL/6 mice, 1 mg/kg i.v. bolus, 5 min, read-out: Level in the blood (mean)): 3780 ± 639 ng/mL
Brain penetrance (in words) ([4]; mouse, 1 mg/kg i.v.): Minimal brain penetrance
In brain ([4]; mouse, 1 mg/kg i.v., 60 min, single mice, analyte inhibitor 1 (also after prodrugs) or 1h): ≤ LLoQ
